Here are results for 1 compound from patent US10272056B2, “Treatment for mitochondrial diseases” (The George Washington University a Congressionally …, priority 2015, dated 2019).

In data set [1] the test system is PC12-ND6 cells. In words: NaBt dose-dependent acetylation of nuclear proteins (anti-acetylated Lys immunocytochemistry). Format: cell-based. Particulars: three days, 2, 5 and 10 mM tested. The source says: (§1) FIG. 4A-4E are images from microscopy and graphs showing NaBt dose-dependent acetylation and cellular toxicity in PC12-ND6 cells and embryonic E17.5 hippocampal neurons. (A) Confocal micrographs of PC12-ND6 cells (referred to as ND6) grown in the absence or presence of NaBt for three days and labeled with an anti-acetylated Lys antibody (AcLys; green). Scale bar represents 10 μm. […] Results are expressed as relative fluorescence intensity±S.D. (n=250 cells per NaBt concentration; * p=0.0001). (C) Effect of NaBt on PC12-ND6 cell viability. […] Mean±SEM (n=250 cells for each experimental condition; * p=0.0001). (D) Confocal micrographs of NaBt dose-dependent acetylation in E17.5 hippocampal neurons (AcLys; green). Scale bar represents 10 μm.
(§2) Sodium butyrate increases protein acetylation in a dose-dependent manner without inducing cellular toxicity. A dose response analysis was performed to determine the optimal concentration of sodium butyrate (NaBt) for inducing maximal acetylation levels with minimal cellular toxicity. PC12-ND6 cells were treated with different concentrations of NaBt (2 mM, 5 mM, and 10 mM) for three days before assessing the degree of acetylated lysine residues by immunocytochemistry and cell viability by live-cell confocal microscopy using the Nuclear-ID™ stain.

Data set [2] has as its system E17.5 hippocampal neurons. In words: NaBt dose-dependent acetylation of nuclear proteins in neurons. As to conditions: E17.5 hippocampal neurons at 1DIV. It is filed as cell-based.
From the text: as §1, §2

For data set [3], the system named is PC12-ND6 cells. In words: ROS (superoxide anions) by MitoSOX live cell confocal microscopy. Particulars: NaBt 5 mM, three days. It is filed as cell-based. On the procedure: PC12-ND6 cells were grown in the absence or presence of NaBt (5 mM) for three days before being labeled with the MitoSox™ dye and the nuclear counterstain Hoechst 33342 and analyzed by live cell confocal imaging. Images are representative of three independent experiments. Scale bar represents 10 μm.
On the basis that increased ΔΨm could result in elevated ROS levels due to electron leakage through the mitochondrial electron transfer chain (ETC), the relative levels of superoxide anions (O2^−) were measured by live cell confocal microscopy using the redox-sensitive fluorogenic live-cell permeant dye MitoSOX™, as described in Uittenbogaard et al., 2010b.

In data set [4] the test system is PC12-ND6 cells. In words: Neurite outgrowth with sub-optimal NGF (10 ng/ml). Format: cell-based. On the procedure: FIG. 13A-13E are images from microscopy and graphs showing that the timing of NaBt treatment is critical for enhancing neuronal differentiation of PC12-ND6 cells upon sub-optimal neurotrophic cues. (A) Confocal micrographs of PC12-ND6 cells treated with dbcAMP alone or with NaBt (5 mM) in a simultaneous or sequential manner. Scale bar represents 5 μm. (B) Graph of neurite length. Mean±SEM (n=50 for each condition; compared to control (no NaBt) *p=0.0001 and **p=0.0009). (C) Confocal micrographs of PC12-ND6 cells treated with sub-optimal NGF concentration (10 ng/ml) alone or first NaBt (5 mM) in a simultaneous or sequential manner. Scale bar represents 10 μm. (D) Graph of average total neurite length. Mean±SEM (n=50 for each condition; compared to control *p=0.0001). (E) Graph of the frequency of total neurite length below and above 90 μm.
NaBt-mediated modulation of the neuronal potential of PC12-ND6 cells in the context of sub-optimal NGF concentration (10 ng/ml) was further investigated. Transfected PC12-ND6 cells were first treated with NaBt (5 mM) for three days prior to NGF exposure (10 ng/ml). A time course analysis of neurite outgrowth was conducted during the first two days of NGF exposure by live-cell confocal microscopy. […] Such trend of neurite extension was maintained at day 2 of NGF exposure with NaBt-pre-treated or co-treated PC12-ND6 cells. Whether NaBt added concomitantly with NGF (10 ng/ml) could mediate increased neuritogenesis was also assessed.

Data set [5] relates to PC12-ND6 cells. In words: Mitochondrial mass under chloramphenicol (mito-GFP live-cell confocal microscopy). Format: cell-based. Particulars: NaBt prior to chloramphenicol, up to highest concentration. The source says: FIG. 14A-14E are images from microscopy showing that pre-treatment of PC12-ND6 cells with NaBt prevents chloramphenicol-mediated decrease of mitochondrial mass. (A) Graph of PC12-ND6 cell death upon exposure to different concentrations of chloramphenicol (Cm). Percent of cell death±SEM (n=250 cells). (B) Quantitative immunoblot analysis of mitochondrial-encoded MT-CO1 protein (green) and nuclear-encoded SDH-A protein (red) in Cm-treated PC12-ND6 cells. (C) Graph of MT-CO1/SDH-A ratio normalized to untreated PC12-ND6 cells. Mean±SEM (n=3; compared to untreated cells *p=0.0052, **p=0.0048, and ***p=0.0034). (D) Confocal micrographs of untreated and Cm-treated PC12-ND6 cells transfected with the vector mito-GFP. Scale bar represents 5 μm. (E) Confocal micrographs of NaBt pre-treated PC12-ND6 cells transfected with the vector mito-GFP and exposed to Cm. Scale bar represents 5 μm.
The efficacy of chloramphenicol treatment was determined by simultaneously examining the expression levels of the nuclear-encoded succinate dehydrogenase (SDH-A) subunit of Complex II and the mitochondrial-encoded subunit I of Complex IV (MT-COI) using a quantitative immunoblot approach. […] The effect of chloramphenicol on mitochondrial mass by live-cell confocal microscopy using PC12-ND6 cells transfected with the vector mito-GFP was confirmed.

The subject of data set [6] is MELAS fibroblasts. In words: Affymetrix genome-wide microarray analysis. Format: cell-based, human. The source says:
An embodiment of the novel pharmacological approach described herein uses butyrates to promote nuclear and mitochondrial metabolic reprogramming by boosting mitochondrial biogenesis and maximizing residual ATP output. […] Thus, the data validate a pharmaco-epigenomic approach and establish proof-of-principle. It was hypothesized that butyrates can augment the functional mitochondrial mass in skin fibroblasts from 20 MELAS patients. Fibroblasts from this number of patients, each with different nuclear backgrounds and heteroplasmic loads, will ensure the findings extend beyond a case study into a statistically sound and broadly applicable report. It will be tested whether butyrates: (Aim 1) induce favorable mitochondrial biogenesis, thereby shifting heteroplasmy toward healthy mitochondria; and (Aim 2) maximize ATP output via optimization of OXPHOS activity and a metabolic shift toward fatty acid beta oxidation. It is anticipated to identify the most promising butyrate candidate for alleviating the symptoms of the MELAS disease. The proposed study will set the stage for future clinical studies with the Children's National Medical Center and the North American Mitochondrial Disease Consortium, in concordance with the PAR-13-023 issued by the NINDS Office of Translational Research for R21 exploratory projects.

SMILES strings stand for the structures. “Also recorded” adds a separate entry of the source.

On to `CCCC(=O)[O-].[Na+]` [NaBt, sodium butyrate], for which the “NaBt concentration showing maximal acetylation levels of nuclear proteins” value in data set [1] is reported as 5 mM. In data set [2], the “NaBt concentration resulting in near maximal acetylation levels of nuclear proteins” value amounted to 2 mM. In data set [3], the ROS production entry is on record as “does not trigger ROS generation; also recorded: failed to generate ROS production”. Besides, the “neurite outgrowth, NaBt and NGF administered simultaneously” value in data set [4] (NGF 10 ng/ml) was “No synergistic effect”. Moreover, the “average total neurite length” value in data set [4] (NaBt 5 mM three days pre-treatment, 24 hours NGF 10 ng/ml, control 60 μm) was 168 μm. Further, the “percent of neurites longer than 90 μm” value in data set [4] (NaBt pre-treated, NGF 10 ng/ml, control 16%) amounted to 79%. Further, in data set [5], the “mitochondrial biomass with NaBt pre-treatment” value is recorded as “sustain their mitochondrial biomass”. Moreover, in data set [6] (30 genes, p<0.05), the “increased expression of OXPHOS genes” value is recorded as at least 1.5 fold. Further, in data set [6] (NaBt), the “nuclear genes significantly regulated” value came to 5% and the off-target effects result was “limited off-target effects”. In data set [6] (NaBt-treated), the “expression of nuclear genes involved in mitochondrial morphology and fusion-fission events” value is given as “increased expression levels”; the “genes known to promote FAO” value is on record as “ten upregulated genes”. The “number of OXPHOS genes with increased expression” value in data set [6] (subunits of complexes II, III, IV, V, p<0.05) amounted to 30.
